In patent US5389641A, “Fused heterocyclic compounds, having angiotensin II antagonistic activity” (Takeda Chemical Industries, Ltd., priority 1991, dated 1995):

What was measured:
AII receptor = biological target: T1, AII receptor (Bos taurus, UniProt P25104); assay: Inhibition of binding of [125I]-angiotensinII to AII receptor (radioreceptor assay); settings: 1 h, membrane fraction from bovine adrenal cortex, room temperature, one hour; for inhibition at 1 µM: 10^-6 (M); for inhibition at 0.1 µM: 10^-7 (M)
T1 construct: An AII receptor membrane fraction was prepared from bovine adrenal cortex; from tissue; host or cells: bovine adrenal cortex, membrane fraction
T1 sequence (P25104 1-359): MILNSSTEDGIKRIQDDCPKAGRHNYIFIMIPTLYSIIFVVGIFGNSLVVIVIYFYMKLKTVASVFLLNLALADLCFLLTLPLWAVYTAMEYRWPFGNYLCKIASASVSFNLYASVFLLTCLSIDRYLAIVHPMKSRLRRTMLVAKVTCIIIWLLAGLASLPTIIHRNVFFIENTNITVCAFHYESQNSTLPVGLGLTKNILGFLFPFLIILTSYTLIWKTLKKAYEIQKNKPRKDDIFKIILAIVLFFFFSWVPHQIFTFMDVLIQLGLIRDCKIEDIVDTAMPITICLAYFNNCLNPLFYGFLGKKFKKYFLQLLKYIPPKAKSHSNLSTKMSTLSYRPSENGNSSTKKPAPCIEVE
Description: An experiment of inhibition on the binding of angiotensinII (AII) to AII receptor was conducted by modifying the method of Douglas et al. [Endocrinology, 102, 685-696 (1978)]. An AII receptor membrane fraction was prepared from bovine adrenal cortex.
The compound of the present invention (10 ^-6 M or 10^-7 M) and [^125 I]-angiotensinII ([^125 I]-AII) (1.85 kBq/50 μl) were added to the receptor membrane fraction, and the mixture was incubated at room temperature for one hour. The receptor-bound and free [^125 I]-AII were separated through a filter (Whatman GF/B filter), and the radioactivity of [^125 I]-AII bound to the receptor was measured.

[1] = reported in literature; cited from earlier work

Question: With `CCCCc1nc2c(C)cnc(C(=O)O)c2n1Cc1ccc(-c2ccccc2-c2nnn[nH]2)cc1` [Example 1, 2-Butyl-7-methyl-3-[[2'-(1H-tetrazol-5-yl)biphenyl-4-yl]methyl]-3H-imidazo[4,5-c]pyridine-4-carboxylic acid] as the compound, how does the inhibition at 1 µM (AII receptor) read?
Answer: 92%

Question: And the inhibition at 0.1 µM (AII receptor)?
Answer: 63%

Question: For `CCCCc1nc2cccc(C(=O)O)c2n1Cc1ccc(-c2ccccc2-c2nnn[nH]2)nc1` [Example 21, 2-Butyl-1-[[2-[2-(1H-tetrazol-5-yl)phenyl]pyridin-5-yl]methyl]benzimidazole-7-carboxylic acid], which inhibition at 1 µM (AII receptor) is on record?
Answer: 70%

Question: What about the inhibition at 0.1 µM (AII receptor) of the same compound?
Answer: 26%

Question: For `CNCC(=O)N[C@@H](CCCN=C(N)N)C(=O)N[C@H](C(=O)N[C@@H](Cc1ccc(O)cc1)C(=O)N[C@H](C(=O)N[C@@H](Cc1cnc[nH]1)C(=O)N1CCC[C@H]1C(=O)N[C@@H](C)C(=O)O)C(C)C)C(C)C` [saralasin], which angiotensinII antagonist activity [1] is on record?
Answer: potent

Question: With `CCc1cc2c(=O)c3cccc(C(=O)OCOC(=O)C(C)(C)C)c3n(Cc3ccc(-c4ccccc4-c4nnn[nH]4)cc3)c2s1` [Example 14, Pivaloyloxymethyl 2-ethyl-4-oxo-9-[[2'-(1H-tetrazol-5-yl)biphenyl-4-yl]methyl]-4,9-dihydrothieno[2,3-b]quinoline-8-carboxylate] as the compound, how does the inhibition at 1 µM (AII receptor) read?
Answer: 69%

Question: What about the inhibition at 0.1 µM (AII receptor) of the same compound?
Answer: 31%

Question: With `CCCCc1nc2cccc(C(=O)O)c2n1Cc1ccc(-n2cccc2-c2nnn[nH]2)cc1` [Example 7, 2-Butyl-1-[[4-[2-(1H-tetrazol-5-yl)-1-pyrrolyl]phenyl]methyl]benzimidazole-7-carboxylic acid] as the compound, how does the inhibition at 1 µM (AII receptor) read?
Answer: 67%

Question: What about the inhibition at 0.1 µM (AII receptor) of the same compound?
Answer: 27%

Question: Which results are given for `CCc1cc2c(=O)c3cccc(C(=O)O)c3n(Cc3ccc(-c4ccccc4-c4nnn[nH]4)cc3)c2s1` [Example 3, 2-Ethyl-4-oxo-9-[[2'-(1H-tetrazol-5-yl)biphenyl-4-yl]methyl]-4,9-dihydrothieno[2,3-b]quinoline-8-carboxylic acid]?
Answer: inhibition at 1 µM (AII receptor): 49%; inhibition at 0.1 µM (AII receptor): 12%

Question: Which inhibition at 1 µM (AII receptor) does the source give for `CCCc1cn2ncc(C(=O)O)c2n1Cc1ccc(-c2ccccc2-c2nn[nH]n2)cc1` [Example 6, 5-Propyl-4-[[2'-(1H-tetrazol-5-yl)biphenyl-4-yl]methyl]-imidazo[1,2-b]pyrazol-3-carboxylic acid] here?
Answer: 91%

Question: And the inhibition at 0.1 µM (AII receptor)?
Answer: 60%

Question: Which inhibition at 1 µM (AII receptor) does the source give for `CCCCc1nc2cccc(C(=O)O)c2n1Cc1ccc2c(=O)n(-c3ccccc3-c3nnn[nH]3)cnc2c1` [Example 26, 2-Butyl-1-[[4-oxo-3-[2-(1H-tetrazol-5-yl)phenyl]-3,4-dihydroquinazolin-7-yl]methyl]benzimidazole-7-carboxylic acid] here?
Answer: 80%

Question: And the inhibition at 0.1 µM (AII receptor)?
Answer: 39%

Question: For `CCCc1nn2ncc(C(=O)O)c2n1Cc1ccc(-c2ccccc2-c2nnn[nH]2)cc1` [Example 11, 2-Propyl-1-[[2'-(1H-tetrazol-5-yl)biphenyl-4-yl]methyl]-1H-pyrazolo[1,5-b][1,2,4]triazole-7-carboxylic acid], which inhibition at 1 µM (AII receptor) is on record?
Answer: 86%

Question: And the inhibition at 0.1 µM (AII receptor)?
Answer: 54%

Question: With `CCCc1nn2ncc(C(=O)OCOC(=O)C(C)(C)C)c2n1Cc1ccc(-c2ccccc2-c2nnn[nH]2)cc1` [Example 20, Pivaloyloxymethyl 2-propyl-1-[[2'-(1H-tetrazol-5-yl)biphenyl-4-yl]methyl]-1H-pyrazolo[1,5-b][1,2,4]triazole-7-carboxylate] as the compound, how does the inhibition at 1 µM (AII receptor) read?
Answer: 61%

Question: What about the inhibition at 0.1 µM (AII receptor) of the same compound?
Answer: 21%

Question: For `CCOc1nc(C(=O)O)c2c(n1)nc(OCC)n2Cc1ccc(-c2ccccc2-c2nnn[nH]2)cc1` [Example 13, 2,8-Diethoxy-7-[[2'-(1H-tetrazol-5-yl)biphenyl-4-yl]methyl]purine-6-carboxylic acid], which inhibition at 1 µM (AII receptor) is on record?
Answer: 49%

Question: What about the inhibition at 0.1 µM (AII receptor) of the same compound?
Answer: 20%

Question: With `CCCc1cc2cccc(C(=O)O)c2n1Cc1ccc(-c2ccccc2-c2nnn[nH]2)cc1` [Example 17, 2-Propyl-1-[[2'-(1H-tetrazol-5-yl)biphenyl-4-yl]methyl]indole-7-carboxylic acid] as the compound, how does the inhibition at 1 µM (AII receptor) read?
Answer: 39%

Question: And the inhibition at 0.1 µM (AII receptor)?
Answer: 0%

Question: With `CCc1cc2c(=O)c3cccc(C(=O)OC(C)OC(=O)OC4CCCCC4)c3n(Cc3ccc(-c4ccccc4-c4nnn[nH]4)cc3)c2s1` (stereo not drawn) [Example 15, 1-(Cyclohexyloxycarbonyloxy)ethyl 2-ethyl-4-oxo-9-[[2'-(1H-tetrazol-5-yl)biphenyl-4-yl]methyl]-4,9-dihydrothieno[2,3-b]quinoline-8-carboxylate] as the compound, how does the inhibition at 1 µM (AII receptor) read?
Answer: 19%

Question: And the inhibition at 0.1 µM (AII receptor)?
Answer: 1%

Question: For `CCCc1nc2c(C)cnc(C(=O)O)c2n1Cc1ccc(-c2ccccc2-c2nnn[nH]2)cc1` [Example 2, 2-Propyl-7-methyl-3-[[2'-(1H-tetrazol-5-yl)biphenyl-4-yl]methyl]-3H-imidazo[4,5-c]pyridine-4-carboxylic acid], which inhibition at 1 µM (AII receptor) is on record?
Answer: 92%

Question: And the inhibition at 0.1 µM (AII receptor)?
Answer: 54%
